Source: patent US20090233999A1, “COMPOSITIONS AND THERAPEUTIC METHODS INVOLVING ISOFLAVONES AND ANALOGUES THEREOF” (NOVOGEN RESEARCH PTY LTD, priority 1999, published 2009)

Tests used:
[1] = tested on: mast cells; assay: UVB psoriasis model: histochemical identification of dermal mast cells; type: in vivo, mouse; details: 20 μM topical; 72 h post-UVB; UVB alone 14.2, unirradiated 9.8
Method: Groups of 3 Skh:hr-1 mice were exposed to 3×MEdD of UVB radiation, with and without topical treatments of 20 μM Cpd. 18 immediately and at 24 and 48 h post-UVB. The mice were euthanased and, and mid-dorsal skin samples were taken before and at 72 h after irradiation for histological fixation. The samples were fixed for 6 h in Histochoice and processed and wax-embedded as described above. Sections of 5 μm were cut for histochemical identification of mast cells, by staining with 0.1% toluidine blue solution in McIlvane buffer, pH 3. Positively stained cells with a diameter of 10 μm or more in the dermal compartment were counted under light microscopy (Olympus UPlanApo, Japan) using a at 20× magnification, in 10 sequential non-overlapping fields for each of 3 mice per treatment group, and the average mast cell number per field was obtained. Statistical significance of the differences between groups was determined using Student's t test. All the experiments were performed at least twice, with triplicate skin samples.

Structure (SMILES) | melting point [°C] | dermal mast cell number [1] [cells per field]
Cc1c(O)ccc2c1OCC(c1cccc(O)c1)=C2 [Cpd. 14, 3′,7-Dihydroxy-8-methylisoflav-3-ene] | 130 | 
COc1ccc(C2=Cc3ccc(O)cc3OC2)cc1OC [Cpd. 18, 7-Hydroxy-3′,4′-dimethoxyisoflav-3-ene] |  | 10.0
